Some test systems named below: NCI-H23 lung; NCI/ADR-RES ovarian; OVCAR-4 ovarian; OVCAR-8 ovarian; SF-268 CNS; SK-MEL-2 melanoma; SK-MEL-5 melanoma; SW-620 colon; UACC-257 melanoma.
Holding throughout (assay): NCI-60 cell line screen, 48 h

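Five compound concentrations were applied to cells in 96-well plates for 48 hours; endpoints were derived by simple linear interpolation of the resulting dose-response curve. TGI marks complete inhibition of growth.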

Regarding `CCCCCc1cc2cc3c(c(O)c2c(=O)[nH]1)C1(CCC3)C(O)=c2c(=O)c3c(=O)cc(OC)c(=O)c=3c(=O)c2=C1O` (stereo not given), the TGI worked out at 3.37 µM in the assay with NCI-H23 lung; 15.3 µM with NCI/ADR-RES ovarian; 4.44 µM in the assay on OVCAR-4 ovarian; 3.25 µM with OVCAR-8 ovarian; 3.63 µM in the assay with SF-268 CNS; 3.68 µM in the assay with SK-MEL-2 melanoma. For the same molecule, the TGI in the assay on SK-MEL-5 melanoma was 1.69 µM; in the assay with SW-620 colon, 3.04 µM; with UACC-257 melanoma, 4.64 µM.
For `COC(OC)C1OCC(n2cc(F)c(=O)[nH]c2=O)C1O` (stereo not given), the TGI with NCI-H23 lung, in the assay with NCI/ADR-RES ovarian, in the assay on OVCAR-4 ovarian, with OVCAR-8 ovarian, with SF-268 CNS and in the assay on SK-MEL-2 melanoma was more than 100 µM throughout. Besides, the TGI with SK-MEL-5 melanoma, in the assay on SW-620 colon and in the assay on UACC-257 melanoma was more than 100 µM in each case.
On to `COc1cc2cc(C(=O)N3CC(CCl)c4c3cc(NC(=O)OCc3ccc([N+](=O)[O-])cc3)c3ccccc43)[nH]c2c(OC)c1OC` (stereo not given), for which the TGI in the assay on NCI-H23 lung is more than 45.4 µM; in the assay with NCI/ADR-RES ovarian, more than 100 µM; in the assay on OVCAR-4 ovarian it was more than 100 µM; in the assay with OVCAR-8 ovarian, more than 100 µM; with SF-268 CNS, more than 81.2 µM; with SK-MEL-2 melanoma it was more than 100 µM. Further, the TGI in the assay on SK-MEL-5 melanoma, in the assay on SW-620 colon and in the assay with UACC-257 melanoma was more than 100 µM throughout.
Take `COc1cc(C2SC(C)C(=O)N2c2ccc(-c3csc(NS(=O)(=O)c4ccc(Cl)c(OC)c4)n3)cc2)ccc1O` (stereo not given): the TGI is 53.6 µM with NCI-H23 lung; more than 100 µM with NCI/ADR-RES ovarian; 79.9 µM with OVCAR-4 ovarian; more than 100 µM in the assay on OVCAR-8 ovarian; 84.6 µM with SF-268 CNS; more than 100 µM in the assay with SK-MEL-2 melanoma. Also, the TGI with SK-MEL-5 melanoma, with SW-620 colon and with UACC-257 melanoma was more than 100 µM each time.
Consider `Cc1cn(CCCCCCC2=NCCCN2)c(=O)[nH]c1=O`, for which the TGI in the assay with NCI-H23 lung, with NCI/ADR-RES ovarian, in the assay on OVCAR-4 ovarian, with OVCAR-8 ovarian, with SF-268 CNS and in the assay on SK-MEL-2 melanoma was more than 100 µM throughout. The TGI in the assay with SK-MEL-5 melanoma, with SW-620 colon and in the assay on UACC-257 melanoma was more than 100 µM each time.
Turning to `COC(=O)CCc1ccc2c(c1)C(=O)CC2`, the TGI in the assay on NCI-H23 lung, with NCI/ADR-RES ovarian, in the assay with OVCAR-4 ovarian, in the assay with OVCAR-8 ovarian, in the assay with SF-268 CNS and in the assay on SK-MEL-2 melanoma was more than 100 µM each time. In addition, the TGI in the assay on SK-MEL-5 melanoma, in the assay on SW-620 colon and in the assay on UACC-257 melanoma was more than 100 µM in each case.
Consider `CC1=NN(C(=O)CC(=O)Nc2ccccc2Cl)C(=O)C1N=Nc1ccc(S(=O)(=O)c2ccc(N=NC3C(=O)N(C(=O)CC(=O)Nc4ccccc4Cl)N=C3C)cc2)cc1` (stereo not given), for which the TGI in the assay with NCI-H23 lung, in the assay on NCI/ADR-RES ovarian, in the assay with OVCAR-4 ovarian, in the assay on OVCAR-8 ovarian, in the assay on SF-268 CNS and in the assay with SK-MEL-2 melanoma was more than 100 µM throughout. Also, the TGI in the assay with SK-MEL-5 melanoma, in the assay on SW-620 colon and with UACC-257 melanoma was more than 100 µM throughout.
For `COc1cc(C2c3cc4c(cc3OC(Nc3ccccc3)C2C)OCO4)cc(OC)c1O` (stereo not given), the TGI in the assay on NCI-H23 lung amounted to 33.5 µM; in the assay on NCI/ADR-RES ovarian it was 8.02 µM; with OVCAR-4 ovarian it was 48.2 µM; in the assay with OVCAR-8 ovarian, 23.8 µM; in the assay on SF-268 CNS, 39.4 µM; with SK-MEL-2 melanoma, 8.59 µM. The TGI came to 10.7 µM with SK-MEL-5 melanoma, 16.3 µM with SW-620 colon and 34 µM in the assay with UACC-257 melanoma.
Consider `C/C(=C\c1ccccc1)C(=O)NCc1ccc(C(=O)NCCc2ccccc2)cc1`, for which the TGI was more than 100 µM in the assay with NCI-H23 lung; more than 100 µM in the assay on NCI/ADR-RES ovarian; more than 100 µM with OVCAR-4 ovarian; 14.7 µM with OVCAR-8 ovarian; more than 39.5 µM in the assay on SF-268 CNS; more than 100 µM with SK-MEL-2 melanoma. In addition, the TGI in the assay with SK-MEL-5 melanoma, in the assay on SW-620 colon and with UACC-257 melanoma was more than 100 µM in each case.
In the case of `O=c1sc2c(s1)-c1sc(=O)sc1SS2`, the TGI in the assay on NCI-H23 lung is more than 60.5 µM; in the assay with NCI/ADR-RES ovarian, more than 76.3 µM; in the assay on OVCAR-4 ovarian, more than 100 µM; with OVCAR-8 ovarian, 48.9 µM; with SF-268 CNS it was more than 100 µM; in the assay on SK-MEL-2 melanoma, more than 100 µM. In addition, the TGI in the assay with SK-MEL-5 melanoma, with SW-620 colon and in the assay on UACC-257 melanoma was more than 100 µM each time.
As for `COc1ccc(/C=C/C(=O)c2cc(C(C)(C)C)c(O)c(C(C)(C)C)c2)cc1OC`, the TGI in the assay with NCI-H23 lung was more than 68.9 µM; in the assay on NCI/ADR-RES ovarian, 49.7 µM; in the assay with OVCAR-4 ovarian, more than 92.9 µM; in the assay on OVCAR-8 ovarian, more than 100 µM; with SF-268 CNS it was more than 67.7 µM; in the assay on SK-MEL-2 melanoma, 16.5 µM. The TGI with SK-MEL-5 melanoma is 20.7 µM; in the assay on SW-620 colon it was more than 100 µM; in the assay on UACC-257 melanoma it was 23.3 µM.
`CCCCCc1nnc(NS(=O)(=O)c2ccc(NC(=O)OCC(C)C)cc2)s1`: the TGI was more than 100 µM in the assay with NCI-H23 lung; more than 100 µM in the assay with NCI/ADR-RES ovarian; 56.5 µM in the assay on OVCAR-4 ovarian; more than 100 µM with OVCAR-8 ovarian; more than 100 µM with SF-268 CNS; 53.5 µM in the assay with SK-MEL-2 melanoma. Further, the TGI in the assay with SK-MEL-5 melanoma is 63.7 µM; in the assay with SW-620 colon, more than 100 µM; in the assay on UACC-257 melanoma it was more than 100 µM.
With `CSc1cc(-c2ccccn2)nc(-c2ccccn2)c1`, the TGI is 7.25 µM in the assay with NCI-H23 lung; 1 µM with NCI/ADR-RES ovarian; 13.2 µM in the assay with OVCAR-4 ovarian; 12.5 µM with OVCAR-8 ovarian; more than 35.2 µM in the assay with SF-268 CNS; 14.9 µM with SK-MEL-2 melanoma. Moreover, the values for the TGI with SK-MEL-5 melanoma, with SW-620 colon and with UACC-257 melanoma were 4.07 µM, 16.6 µM and 15.3 µM, respectively.
Turning to `O=C(c1ccccc1)n1cc(-c2ccccc2)c2c(=O)[nH]cnc21`, the TGI in the assay with NCI-H23 lung, in the assay on NCI/ADR-RES ovarian, with OVCAR-4 ovarian, in the assay on OVCAR-8 ovarian, in the assay with SF-268 CNS and with SK-MEL-2 melanoma was more than 100 µM each time. Further, the TGI in the assay with SK-MEL-5 melanoma, in the assay with SW-620 colon and in the assay on UACC-257 melanoma was more than 100 µM throughout.
For `O=C(CCCCCC(=O)N1CC(CCl)c2ccc([N+](=O)[O-])cc21)N1CC(CCl)c2ccc([N+](=O)[O-])cc21` (stereo not given), the TGI in the assay on NCI-H23 lung, with NCI/ADR-RES ovarian, with OVCAR-4 ovarian, in the assay on OVCAR-8 ovarian, with SF-268 CNS and in the assay with SK-MEL-2 melanoma was more than 100 µM in each case. Also, the TGI with SK-MEL-5 melanoma, with SW-620 colon and in the assay with UACC-257 melanoma was more than 100 µM in each case.

The values above are taken from PubChem BioAssay (NCI).
